Source: US12121614B2, “Delayed release composition for peroral administration” (VICORE PHARMA AB, priority 2020, dated 2024)

Tests used:
[1] = Dissolution studies of C21 sodium salt in buffers of different pH; type: physicochemical; conditions: Zwitterion formed at intermediated pHs; conclusion from experiments (A)-(E)
Description: 50.7 mg of C21 sodium salt (Ardena, Riga, Latvia) was added to 900 mL of 0.09M carbonate buffer (pH 8.95) at a temperature of 37±3° C. with stirring. […] After 15 minutes of stirring, 2M acetic acid solution was added dropwise to provide a pH of 4.52. Evolution CO2 was noted. […] After additional stirring for a further 1.5 hours, 1M NaOH was added to increase pH to 6.8.
51.2 mg of C21 sodium salt was added to 900 mL of acetate buffer (pH 4.4) at the same temperature with stirring. […] After stirring for 1 hour, 1M NaOH solution was added dropwise to increase the pH to 7.2.
53.2 mg of C21 sodium salt was added to 900 mL 0.1M of HCl buffer (pH 1.0) at the same temperature with stirring. […] After 20 minutes of stirring, 1M NaOH solution was added dropwise to increase the pH to 4.5.
51.0 mg of C21 sodium salt was added to 900 mL of 0.1M citrate buffer (pH 4.42) at the same temperature with stirring. The added compound formed a thin slurry. It seemed that nothing had dissolved.
50.8 mg of C21 sodium salt was added to 900 mL of an acetate buffer (pH 4.49) at the same temperature. […] After stirring for 1 hour, a 1M NaOH solution was added dropwise to increase the pH to 6.8.

[2] = Phase I clinical trial: safety and tolerability of C21 in healthy subjects; type: in vivo, human; conditions: healthy male and female subjects, gradual escalation of dose
Description: A Phase I clinical trial was conducted to evaluate the safety, tolerability, and pharmacokinetics of C21 in healthy male and female subjects. The study design allowed a gradual escalation of dose with intensive clinical data and PK monitoring to ensure the safety and wellbeing of subjects.
The study was designed and conducted in accordance with the CRO's standard operating procedures (SOPs), which comply with the ethical principles laid down in the International Council for Harmonisation (ICH) Good Clinical Practice (GCP) guidance as required by the major regulatory authorities, and in accordance with the Declaration of Helsinki as amended by the 48th General Assembly in October 1996.

solubility of C21's Zwitterion [1]: insoluble
Structure (SMILES): CCCCOC(=O)NS(=O)(=O)c1sc(CC(C)C)cc1-c1ccc(Cn2ccnc2)cc1 [C21, N-butyloxycarbonyl-3-(4-imidazol-1-ylmethylphenyl)-5-iso-butylthiophene-2-sulfonamide]
safety and tolerability [2]: safe and generally well tolerated
serious adverse events [2]: No serious adverse events
